# Source: ChEMBL document CHEMBL1149005, “Studies on zoapatle, II. Leucanthanolide, a novel sesquiterpene lactone from Montanoa leucantha ssp. leucantha” (1986)
# Active and inactive are the calls of the source. The calls are words filed in the database; no cut-off is given here.
# What was measured:
# KB = test: Cytotoxicity against human KB cells; type: functional; conditions: read-out: ED50 (the source's name)
# Cavia porcellus = test: Uteroevacuant activity in pregnant guinea pig at 20 mg/kg, ip administered on day 22 of gestation measured daily for 7 days; type: functional, organism-based; set-up: dose 20 mg/kg
# P388 = test: Cytotoxicity against mouse P388 cells; type: functional; conditions: read-out: ED50 (the source's name)
smiles,measurement,setting,value
C=C1C(=O)O[C@@H]2/C=C(\C)CC/C=C(\C)[C@@H](OC(=O)C(C)C)[C@H](O)[C@@]12O [LEUCANTHANOLIDE],EC50,KB,0.57 µg/mL
same,Activity,Cavia porcellus,inactive
same,EC50,P388,0.93 µg/mL
